According to patent US20090038025A1, “Selection system for maize transformation” (BASF Plant Science GmbH, priority 2005, published 2009):

System: corn immature embryos
Assay: Immature embryo germination inhibition bioassay (kill curves)
Type: cell-based, Zea mays
Conditions: immature embryos 2 mm on germination medium, 27° C. in light; shoot and primary root length 7 days after dissection
Method: In order to establish effective concentrations of D-Serine and D-Alanine on inhibiting growth of tissue cultured corn cells, a bioassay system using immature embryos was applied. Immature embryos 2 mm in length were dissected onto germination medium with the selection agents, and incubated at 27° C. in light. The lengths of the shoot and primary root of a germinated seedling were measured 7 days after embryo dissection (FIGS. 1A and 1B).

| Structure (SMILES) | concentration above which significant/pronounced growth inhibition occurs |
| --- | --- |
| C[C@@H](N)C(=O)O [D-Alanine] | higher than 2 mM |
| N[C@H](CO)C(=O)O [D-Serine] | higher than 9 mM |
